Data taken from PubChem BioAssay AID2060891 (Molecular Pharmacology Branch, DTP, NCI, 2025).

System: K98450-129-R-PDC complex spheroid growth, percent test/control
Experiment: Anticancer human tumor K98450-129-R-PDC patient-derived colon adenocarcinoma cell line growth inhibition [RAS]
Conditions: for IC50: curve of first compound; for viability, T/C: stronger effect = lower value
Summary of the method: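 Multi-cell-type spheroids: tumor cells plus HUVEC endothelial cells and mesenchymal stem cells. RAS-pathway inhibitors were combined with targeted agents, each dosed in half-log steps down from clinical Cmax, or from 10 microM when Cmax was unknown.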

[1] = second compound 0.000949 µM, first compound 0.0316 µM
[2] = second compound 0.000949 µM, first compound 0.1 µM
[3] = second compound 0.000949 µM, first compound 0.316 µM
[4] = second compound 0.000949 µM, first compound 1 µM
[5] = second compound 0.003 µM, first compound 0.0316 µM
[6] = second compound 0.003 µM, first compound 0.1 µM
[7] = second compound 0.003 µM, first compound 0.316 µM
[8] = second compound 0.003 µM, first compound 1 µM
[9] = second compound 0.00949 µM, first compound 0.0316 µM
[10] = second compound 0.00949 µM, first compound 0.1 µM
[11] = second compound 0.00949 µM, first compound 0.316 µM
[12] = second compound 0.00949 µM, first compound 1 µM
[13] = second compound 0.03 µM, first compound 0.0316 µM
[14] = second compound 0.03 µM, first compound 0.1 µM
[15] = second compound 0.03 µM, first compound 0.316 µM
[16] = second compound 0.03 µM, first compound 1 µM
[17] = second compound 0.0949 µM, first compound 0.0316 µM
[18] = second compound 0.0949 µM, first compound 0.1 µM
[19] = second compound 0.0949 µM, first compound 0.316 µM
[20] = second compound 0.0949 µM, first compound 1 µM
[21] = second compound 0.3 µM, first compound 0.0316 µM
[22] = second compound 0.3 µM, first compound 0.1 µM
[23] = second compound 0.3 µM, first compound 0.316 µM
[24] = second compound 0.3 µM, first compound 1 µM
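Also: spheroids exposed to agents for seven days before the viability readout.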
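For viability, T/C in this document: luminescence used as a proxy for viable cell amount.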

Compound `CC(=O)OC12COC1CC(O)C1(C)C(=O)C(O)C3=C(C)C(OC(=O)C(O)C(NC(=O)OC(C)(C)C)c4ccccc4)CC(O)(C(OC(=O)c4ccccc4)C21)C3(C)C` (stereo unspecified) + CCn1c(-c2cc(N3CCN(C)CC3)cnc2C(C)OC)c2c3cc(ccc31)-c1csc(n1)CC(NC(=O)C1CC1C)C(=O)N1CCCC(N1)C(=O)OCC(C)(C)C2 has an IC50 (second compound 0.000949 µM) of 688 nM, an IC50 (second compound 0.003 µM) of 252 nM and an IC50 (second compound 0.00949 µM) of 188 nM. It also gave an IC50 (second compound 0.03 µM) of under 31.6 nM, an IC50 (second compound 0.0949 µM) of under 31.6 nM and an IC50 (second compound 0.3 µM) of under 31.6 nM. The viability, T/C [1] was 101%, the viability, T/C [2] was 78.6% and the viability, T/C [3] was 66.3%. It also gave a viability, T/C [4] of 39.4%, a viability, T/C (second compound 0.000949 µM, first compound 3.16 µM) of 38.4% and a viability, T/C (second compound 0.000949 µM, first compound 10 µM) of 34%. For the same compound, the viability, T/C [5] was 95.8%, the viability, T/C [6] was 69.4% and the viability, T/C [7] was 46%. The viability, T/C [8] was 29.2%, the viability, T/C (second compound 0.003 µM, first compound 3.16 µM) was 32.5% and the viability, T/C (second compound 0.003 µM, first compound 10 µM) was 22.4%. For the same compound, the viability, T/C [9] was 64.7%, the viability, T/C [10] was 70.1% and the viability, T/C [11] was 35.6%. For the same compound, the viability, T/C [12] was 24.6%, the viability, T/C (second compound 0.00949 µM, first compound 3.16 µM) was 23.5% and the viability, T/C (second compound 0.00949 µM, first compound 10 µM) was 19.2%. For the same compound, the viability, T/C [13] was 44.9%, the viability, T/C [14] was 43.2% and the viability, T/C [15] was 20.9%. It also gave a viability, T/C [16] of 16.6%, a viability, T/C (second compound 0.03 µM, first compound 3.16 µM) of 15.8% and a viability, T/C (second compound 0.03 µM, first compound 10 µM) of 15.3%. It also gave a viability, T/C [17] of 17.3%, a viability, T/C [18] of 14.5% and a viability, T/C [19] of 12.4%. The viability, T/C [20] was 12.5%, the viability, T/C (second compound 0.0949 µM, first compound 3.16 µM) was 12.5% and the viability, T/C (second compound 0.0949 µM, first compound 10 µM) was 10.7%. The viability, T/C [21] was 11%, the viability, T/C [22] was 10.1% and the viability, T/C [23] was 11%. It also gave a viability, T/C [24] of 9.96%, a viability, T/C (second compound 0.3 µM, first compound 3.16 µM) of 10.9% and a viability, T/C (second compound 0.3 µM, first compound 10 µM) of 9.38%.

Compound `CCc1c2c(nc3ccc(O)cc13)-c1cc3c(c(=O)n1C2)COC(=O)[C@]3(O)CC` + CCn1c(-c2cc(N3CCN(C)CC3)cnc2C(C)OC)c2c3cc(ccc31)-c1csc(n1)CC(NC(=O)C1CC1C)C(=O)N1CCCC(N1)C(=O)OCC(C)(C)C2 has an IC50 (second compound 0.000949 µM) of 83.6 nM, an IC50 (second compound 0.003 µM) of 57.1 nM and an IC50 (second compound 0.00949 µM) of 18.5 nM. The IC50 (second compound 0.03 µM) was 3.92 nM, the IC50 (second compound 0.0949 µM) was under 0.949 nM and the IC50 (second compound 0.3 µM) was under 0.949 nM. The viability, T/C (second compound 0.000949 µM, first compound 0.000949 µM) was 105%, the viability, T/C (second compound 0.000949 µM, first compound 0.003 µM) was 89.6% and the viability, T/C (second compound 0.000949 µM, first compound 0.00949 µM) was 81.6%. The viability, T/C (second compound 0.000949 µM, first compound 0.03 µM) was 52.6%, the viability, T/C (second compound 0.000949 µM, first compound 0.0949 µM) was 53.1% and the viability, T/C (second compound 0.000949 µM, first compound 0.3 µM) was 44.3%. The viability, T/C (second compound 0.003 µM, first compound 0.000949 µM) was 91.6%, the viability, T/C (second compound 0.003 µM, first compound 0.003 µM) was 75.3% and the viability, T/C (second compound 0.003 µM, first compound 0.00949 µM) was 76%. It also gave a viability, T/C (second compound 0.003 µM, first compound 0.03 µM) of 54.7%, a viability, T/C (second compound 0.003 µM, first compound 0.0949 µM) of 43.8% and a viability, T/C (second compound 0.003 µM, first compound 0.3 µM) of 36.4%. For the same compound, the viability, T/C (second compound 0.00949 µM, first compound 0.000949 µM) was 69.5%, the viability, T/C (second compound 0.00949 µM, first compound 0.003 µM) was 56.6% and the viability, T/C (second compound 0.00949 µM, first compound 0.00949 µM) was 66.7%. The viability, T/C (second compound 0.00949 µM, first compound 0.03 µM) was 39.6%, the viability, T/C (second compound 0.00949 µM, first compound 0.0949 µM) was 29.3% and the viability, T/C (second compound 0.00949 µM, first compound 0.3 µM) was 22.5%. For the same compound, the viability, T/C (second compound 0.03 µM, first compound 0.000949 µM) was 53.4%, the viability, T/C (second compound 0.03 µM, first compound 0.003 µM) was 52.8% and the viability, T/C (second compound 0.03 µM, first compound 0.00949 µM) was 43.3%. The viability, T/C (second compound 0.03 µM, first compound 0.03 µM) was 24.7%, the viability, T/C (second compound 0.03 µM, first compound 0.0949 µM) was 22.8% and the viability, T/C (second compound 0.03 µM, first compound 0.3 µM) was 13.9%. It also gave a viability, T/C (second compound 0.0949 µM, first compound 0.000949 µM) of 19.6%, a viability, T/C (second compound 0.0949 µM, first compound 0.003 µM) of 24.4% and a viability, T/C (second compound 0.0949 µM, first compound 0.00949 µM) of 17.5%. It also gave a viability, T/C (second compound 0.0949 µM, first compound 0.03 µM) of 12.3%, a viability, T/C (second compound 0.0949 µM, first compound 0.0949 µM) of 13.2% and a viability, T/C (second compound 0.0949 µM, first compound 0.3 µM) of 9.33%. The viability, T/C (second compound 0.3 µM, first compound 0.000949 µM) was 12.4%, the viability, T/C (second compound 0.3 µM, first compound 0.003 µM) was 15.5% and the viability, T/C (second compound 0.3 µM, first compound 0.00949 µM) was 11.4%. The viability, T/C (second compound 0.3 µM, first compound 0.03 µM) was 10.8%, the viability, T/C (second compound 0.3 µM, first compound 0.0949 µM) was 10.3% and the viability, T/C (second compound 0.3 µM, first compound 0.3 µM) was 6.55%.

Compound `Nc1ccn(C2OC(CO)C(O)C2(F)F)c(=O)n1` (stereo unspecified) + CCn1c(-c2cc(N3CCN(C)CC3)cnc2C(C)OC)c2c3cc(ccc31)-c1csc(n1)CC(NC(=O)C1CC1C)C(=O)N1CCCC(N1)C(=O)OCC(C)(C)C2 has an IC50 (second compound 0.000949 µM) of 254 nM, an IC50 (second compound 0.003 µM) of 133 nM and an IC50 (second compound 0.00949 µM) of 26.4 nM. For the same compound, the IC50 (second compound 0.03 µM) was under 3.16 nM, the IC50 (second compound 0.0949 µM) was under 3.16 nM and the IC50 (second compound 0.3 µM) was under 3.16 nM. For the same compound, the viability, T/C (second compound 0.000949 µM, first compound 0.00316 µM) was 93.1%, the viability, T/C (second compound 0.000949 µM, first compound 0.01 µM) was 82.9% and the viability, T/C [1] was 80.5%. For the same compound, the viability, T/C [2] was 56.4%, the viability, T/C [3] was 50.5% and the viability, T/C [4] was 37.6%. The viability, T/C (second compound 0.003 µM, first compound 0.00316 µM) was 98.1%, the viability, T/C (second compound 0.003 µM, first compound 0.01 µM) was 80.1% and the viability, T/C [5] was 62.3%. For the same compound, the viability, T/C [6] was 52.8%, the viability, T/C [7] was 44.4% and the viability, T/C [8] was 37.3%. For the same compound, the viability, T/C (second compound 0.00949 µM, first compound 0.00316 µM) was 77%, the viability, T/C (second compound 0.00949 µM, first compound 0.01 µM) was 62.2% and the viability, T/C [9] was 49.2%. For the same compound, the viability, T/C [10] was 33.2%, the viability, T/C [11] was 30% and the viability, T/C [12] was 23.8%. It also gave a viability, T/C (second compound 0.03 µM, first compound 0.00316 µM) of 43.4%, a viability, T/C (second compound 0.03 µM, first compound 0.01 µM) of 45.9% and a viability, T/C [13] of 33.5%. For the same compound, the viability, T/C [14] was 23.1%, the viability, T/C [15] was 20.7% and the viability, T/C [16] was 15.2%. The viability, T/C (second compound 0.0949 µM, first compound 0.00316 µM) was 21.1%, the viability, T/C (second compound 0.0949 µM, first compound 0.01 µM) was 21.4% and the viability, T/C [17] was 14.4%. The viability, T/C [18] was 11.9%, the viability, T/C [19] was 14.8% and the viability, T/C [20] was 11.5%. It also gave a viability, T/C (second compound 0.3 µM, first compound 0.00316 µM) of 9.67%, a viability, T/C (second compound 0.3 µM, first compound 0.01 µM) of 13.7% and a viability, T/C [21] of 12.9%. It also gave a viability, T/C [22] of 11.4%, a viability, T/C [23] of 10.9% and a viability, T/C [24] of 9.09%.
